Patent US20240352533A1, “Monocarboxylic Acid Transporter 4 as a Biomarker for Hypoxia Driven Tumor Growth and Treatment” (NantBio, Inc., priority 2023, published 2024)

System: Ishikawa cells
Test: Tumorsphere growth with and without Mct-4 overexpression
Type: cell-based
Settings: 72 hr
Experimental: After 18 hr, 10× drug was added, and after 72 hr, plates were imaged.

With `Cc1cc(-c2nc(-c3ccc(OC(F)(F)F)cc3)no2)nn1Cc1ccnc(N2CCN(C3CC3)CC2)c1` [Bay87-2243] the tumorsphere growth (Ishikawa cells, 384-well round bottom) was “tumorsphere growth inhibition” and the “tumorsphere growth inhibition under Mct-4 overexpression” value (Mct-4 overexpressing Ishikawa cells) was “Mct-4 overexpression reverses tumorsphere growth inhibition”.
